According to ChEMBL document CHEMBL4052763, “Discovery of dual Axl/VEGF-R2 inhibitors as potential anti-angiogenic and anti-metastatic drugs for cancer chemotherapy” (Bioorg Med Chem Lett, 2017):

Target: T1, Tyrosine-protein kinase receptor UFO (Homo sapiens, UniProt P30530)
T1 sequence (P30530 whole entry): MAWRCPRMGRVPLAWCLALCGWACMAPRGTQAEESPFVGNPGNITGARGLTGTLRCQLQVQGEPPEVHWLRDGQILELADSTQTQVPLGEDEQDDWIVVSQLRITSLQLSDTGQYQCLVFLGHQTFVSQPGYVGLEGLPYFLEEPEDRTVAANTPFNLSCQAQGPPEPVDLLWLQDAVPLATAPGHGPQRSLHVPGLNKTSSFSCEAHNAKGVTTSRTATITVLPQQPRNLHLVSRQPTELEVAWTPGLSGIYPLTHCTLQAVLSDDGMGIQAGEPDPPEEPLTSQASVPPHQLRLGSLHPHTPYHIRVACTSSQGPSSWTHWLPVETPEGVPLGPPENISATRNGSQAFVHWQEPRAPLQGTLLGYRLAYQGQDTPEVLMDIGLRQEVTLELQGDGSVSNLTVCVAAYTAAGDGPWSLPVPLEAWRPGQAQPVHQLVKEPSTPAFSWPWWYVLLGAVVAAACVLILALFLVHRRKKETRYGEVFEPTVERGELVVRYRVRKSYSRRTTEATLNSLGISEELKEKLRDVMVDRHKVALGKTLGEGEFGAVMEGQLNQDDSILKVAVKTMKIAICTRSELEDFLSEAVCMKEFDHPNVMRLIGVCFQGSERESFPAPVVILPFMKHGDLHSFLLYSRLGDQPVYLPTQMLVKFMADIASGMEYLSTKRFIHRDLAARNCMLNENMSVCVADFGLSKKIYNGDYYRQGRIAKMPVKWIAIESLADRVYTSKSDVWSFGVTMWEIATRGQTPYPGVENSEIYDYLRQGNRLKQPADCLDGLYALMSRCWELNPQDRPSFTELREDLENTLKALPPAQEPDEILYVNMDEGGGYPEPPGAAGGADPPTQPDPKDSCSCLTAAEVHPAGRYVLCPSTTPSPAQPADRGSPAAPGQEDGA
Assay: Inhibition of Axl in human HeLa cells assessed as reduction in AKT phosphorylation at Ser 473 residues pre-incubated for 1 hr before preclustered anti-Axl antibody stimulation by Western blot analysis
Format: cell-based
Conditions: not given

| EC50 [nM] | Compound |
| --- | --- |
| 21 | Nc1nc(Nc2ccc(N3CCN(C4CC5CCC4C5)CC3)cc2)nn1-c1ncnc2ccsc12 (racemic) |

System: not listed separately
Assay: Volume of distribution at steady state in iv dosed Sprague-Dawley rat
Format: ADME, organism-based
Conditions: in vivo, read-out: Vdss

| Compound | Vd [L/kg] |
| --- | --- |
| COc1cc2ncnc(-n3nc(Nc4ccc(N5CCN(C6CC7CCC6C7)CC5)c(Cl)c4)nc3N)c2cc1OC (stereo not given) | 27 |
| Nc1nc(Nc2ccc(N3CCN(C4CC5CCC4C5)CC3)cc2)nn1-c1nccc2ccccc12 (racemic) | 8.8 |

Other lines, results leading:

| Vd [L/kg] | Compound |
| --- | --- |
| 4.4 | Cc1csc2c(-n3nc(Nc4ccc(N5CCN(C6CC7CCC6C7)CC5)cc4)nc3N)nc(Cl)nc12 (racemic) |
| 7.9 | Nc1nc(Nc2ccc(N3CCN(C4CC5CCC4C5)CC3)cc2)nn1-c1ncnc2ccc(F)cc12 (racemic) |

System: CAKI-1
Assay: Antitumor activity against human Caki1 cells xenografted model assessed as tumor growth inhibition at 80 mg/kg, po qd relative to control
Format: functional
Conditions: CAKI-1, po, read-out: TGI

| Compound | inhibition in vivo at 80 mg/kg [%] |
| --- | --- |
| CCN(CC)CCNC(=O)c1c(C)[nH]c(/C=C2\C(=O)Nc3ccc(F)cc32)c1C [SUNITINIB] | 85 |

System: MDA-MB-231
Assay: Antitumor activity against human MDA-MB-231 cells xenografted in nu/nu mouse assessed as tumor growth inhibition at 80 mg/kg, qd after 21 days relative to control
Format: functional
Conditions: MDA-MB-231, 504 h, read-out: TGI

| Compound | inhibition in vivo at 80 mg/kg [%] |
| --- | --- |
| CCN(CC)CCNC(=O)c1c(C)[nH]c(/C=C2\C(=O)Nc3ccc(F)cc32)c1C [SUNITINIB] | 84 |

Target: Insulin receptor (Homo sapiens, UniProt P06213)
Sequence (P06213 28-758 limits assumed): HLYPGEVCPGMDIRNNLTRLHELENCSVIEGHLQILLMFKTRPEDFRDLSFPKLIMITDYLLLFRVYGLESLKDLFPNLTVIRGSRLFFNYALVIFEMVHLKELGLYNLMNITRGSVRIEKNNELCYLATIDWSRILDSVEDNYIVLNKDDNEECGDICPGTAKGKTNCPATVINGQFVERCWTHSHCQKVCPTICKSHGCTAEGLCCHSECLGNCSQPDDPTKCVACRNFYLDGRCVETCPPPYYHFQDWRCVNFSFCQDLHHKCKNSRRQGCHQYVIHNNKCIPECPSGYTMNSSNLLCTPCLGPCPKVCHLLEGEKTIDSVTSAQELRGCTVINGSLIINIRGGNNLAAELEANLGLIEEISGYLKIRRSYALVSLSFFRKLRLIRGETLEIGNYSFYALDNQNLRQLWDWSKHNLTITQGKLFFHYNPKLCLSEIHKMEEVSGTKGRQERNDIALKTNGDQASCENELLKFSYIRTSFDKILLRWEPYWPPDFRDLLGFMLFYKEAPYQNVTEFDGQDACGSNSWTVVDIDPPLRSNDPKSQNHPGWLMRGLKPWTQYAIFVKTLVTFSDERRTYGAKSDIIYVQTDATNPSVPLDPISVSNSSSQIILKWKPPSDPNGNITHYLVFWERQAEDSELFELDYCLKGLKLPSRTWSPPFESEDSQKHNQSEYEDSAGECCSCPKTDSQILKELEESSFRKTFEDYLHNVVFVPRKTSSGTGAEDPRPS
Sequence (P06213 763-1382 limits assumed): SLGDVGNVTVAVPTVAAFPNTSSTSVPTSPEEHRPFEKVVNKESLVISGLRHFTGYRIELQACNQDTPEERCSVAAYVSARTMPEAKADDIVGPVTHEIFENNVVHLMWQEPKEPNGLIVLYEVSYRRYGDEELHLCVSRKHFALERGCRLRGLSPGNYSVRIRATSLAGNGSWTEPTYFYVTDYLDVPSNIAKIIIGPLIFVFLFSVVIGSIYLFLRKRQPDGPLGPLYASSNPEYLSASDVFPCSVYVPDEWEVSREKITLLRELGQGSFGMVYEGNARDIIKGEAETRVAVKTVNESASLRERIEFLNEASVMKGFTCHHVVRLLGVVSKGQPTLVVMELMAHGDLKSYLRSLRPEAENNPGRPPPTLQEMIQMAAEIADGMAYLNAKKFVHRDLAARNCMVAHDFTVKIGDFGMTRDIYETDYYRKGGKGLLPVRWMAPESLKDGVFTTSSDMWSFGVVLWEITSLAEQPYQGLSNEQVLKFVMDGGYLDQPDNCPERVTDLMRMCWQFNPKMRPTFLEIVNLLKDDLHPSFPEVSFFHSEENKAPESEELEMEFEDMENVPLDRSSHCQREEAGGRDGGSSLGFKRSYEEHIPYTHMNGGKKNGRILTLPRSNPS
Assay: Inhibition of insulin stimulated INSR phosphorylation in human HeLa cells preincubated for 1 hr followed by insulin addition measured after 5 mins by Western blot analysis
Format: cell-based
Conditions: not given

| EC50 [nM] | Compound |
| --- | --- |
| > 10000 | COc1cc2ncnc(-n3nc(Nc4ccc(N5CCN(C6CC7CCC6C7)CC5)c(Cl)c4)nc3N)c2cc1OC (stereo not given) |
| 320 | Cc1nc(-n2nc(Nc3ccc(OCCN4CCCC4)cc3)nc2N)c2ccccc2n1 |
| 126 | Nc1nc(Nc2ccc(OCCN3CCCC3)cc2)nn1-c1ncnc2ccc(F)cc12 |
| 300 | Nc1nc(Nc2ccc(OCCN3CCCC3)cc2)nn1-c1ncnc2c1sc1ccccc12 |
| 4170 | COc1cc2ncnc(-n3nc(Nc4ccc(OCCN5CCCC5)c(Cl)c4)nc3N)c2cc1OC |
| 1010 | Nc1nc(Nc2ccc(OCCN3CCCC3)cc2)nn1-c1ncnc2c1CCC2 |
| 14 | Nc1nc(Nc2ccc(OCCN3CCCC3)cc2)nn1-c1ncnc2ccc(Cl)cc12 |
| 582 | Cc1csc2c(-n3nc(Nc4ccc(OCCN5CCCC5)cc4)nc3N)nc(Cl)nc12 |

System: Mus musculus
Assay: Inhibition of fibroblast growth factor-induced neovascularization in mouse corneal micropocket at 80 mg/kg, qd relative to control
Format: functional
Conditions: not given

| Compound | inhibition in vivo at 80 mg/kg [%] |
| --- | --- |
| CCN(CC)CCNC(=O)c1c(C)[nH]c(/C=C2\C(=O)Nc3ccc(F)cc32)c1C [SUNITINIB] | 78 |

System: not listed separately
Assay: Clearance in iv dosed Sprague-Dawley rat
Format: ADME, organism-based
Conditions: in vivo

| Compound | clearance [mL/min/kg] |
| --- | --- |
| COc1cc2ncnc(-n3nc(Nc4ccc(N5CCN(C6CC7CCC6C7)CC5)c(Cl)c4)nc3N)c2cc1OC (stereo not given) | 117 |
| Nc1nc(Nc2ccc(N3CCN(C4CC5CCC4C5)CC3)cc2)nn1-c1nccc2ccccc12 (racemic) | 52 |

Other lines, results leading:

| clearance [mL/min/kg] | Compound |
| --- | --- |
| 11.5 | Cc1csc2c(-n3nc(Nc4ccc(N5CCN(C6CC7CCC6C7)CC5)cc4)nc3N)nc(Cl)nc12 (racemic) |
| 44 | Nc1nc(Nc2ccc(N3CCN(C4CC5CCC4C5)CC3)cc2)nn1-c1ncnc2ccc(F)cc12 (racemic) |

Target: Vascular endothelial growth factor receptor 2 (Homo sapiens, UniProt P35968)
Sequence (P35968 whole entry): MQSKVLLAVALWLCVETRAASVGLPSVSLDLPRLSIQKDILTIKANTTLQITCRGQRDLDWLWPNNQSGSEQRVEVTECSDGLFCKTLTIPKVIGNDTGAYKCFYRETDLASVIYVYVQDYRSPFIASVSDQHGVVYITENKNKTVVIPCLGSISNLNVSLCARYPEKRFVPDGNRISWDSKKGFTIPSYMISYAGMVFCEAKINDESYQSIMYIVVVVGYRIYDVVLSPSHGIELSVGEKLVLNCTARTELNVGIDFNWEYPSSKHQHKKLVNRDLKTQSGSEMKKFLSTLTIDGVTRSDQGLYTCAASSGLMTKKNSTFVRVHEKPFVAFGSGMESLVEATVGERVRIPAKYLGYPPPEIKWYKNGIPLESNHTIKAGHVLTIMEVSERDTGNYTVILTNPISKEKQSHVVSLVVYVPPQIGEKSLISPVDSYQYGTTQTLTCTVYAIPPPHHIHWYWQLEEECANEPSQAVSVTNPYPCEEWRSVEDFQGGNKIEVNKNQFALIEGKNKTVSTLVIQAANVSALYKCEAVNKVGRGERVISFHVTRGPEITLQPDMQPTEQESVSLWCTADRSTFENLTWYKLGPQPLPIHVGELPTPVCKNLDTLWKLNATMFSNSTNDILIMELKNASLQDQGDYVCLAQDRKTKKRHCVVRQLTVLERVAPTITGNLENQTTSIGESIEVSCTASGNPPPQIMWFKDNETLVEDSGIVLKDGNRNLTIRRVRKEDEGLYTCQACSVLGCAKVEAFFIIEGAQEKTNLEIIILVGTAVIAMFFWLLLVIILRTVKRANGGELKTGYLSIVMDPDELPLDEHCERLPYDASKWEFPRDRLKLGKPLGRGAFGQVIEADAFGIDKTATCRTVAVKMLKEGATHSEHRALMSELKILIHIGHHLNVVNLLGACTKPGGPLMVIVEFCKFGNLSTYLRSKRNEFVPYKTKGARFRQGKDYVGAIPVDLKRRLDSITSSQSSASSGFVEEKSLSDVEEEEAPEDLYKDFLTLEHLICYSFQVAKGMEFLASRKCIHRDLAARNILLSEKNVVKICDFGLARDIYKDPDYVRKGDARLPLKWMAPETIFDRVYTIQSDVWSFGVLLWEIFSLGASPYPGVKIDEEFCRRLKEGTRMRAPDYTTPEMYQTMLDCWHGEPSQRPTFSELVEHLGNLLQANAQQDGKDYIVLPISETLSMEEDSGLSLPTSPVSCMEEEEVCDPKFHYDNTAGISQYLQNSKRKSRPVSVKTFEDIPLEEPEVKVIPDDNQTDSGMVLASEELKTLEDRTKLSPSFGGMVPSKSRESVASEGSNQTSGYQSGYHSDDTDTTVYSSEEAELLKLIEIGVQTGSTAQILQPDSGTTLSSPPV
Assay: Inhibition of VEGF stimulated VEGFR2 phosphorylation at […] residues in HUVEC preincubated for 1 hr followed by VEGF addition measured after 5 mins by Western blot analysis
Conditions: not given

| EC50 [nM] | Compound |
| --- | --- |
| 47 | COc1cc2ncnc(-n3nc(Nc4ccc(N5CCN(C6CC7CCC6C7)CC5)c(Cl)c4)nc3N)c2cc1OC (stereo not given) |
| 65 | Cc1csc2c(-n3nc(Nc4ccc(N5CCN(C6CC7CCC6C7)CC5)cc4)nc3N)nc(Cl)nc12 (racemic) |
| 104 | Cc1nc(-n2nc(Nc3ccc(N4CCN(C5CC6CCC5C6)CC4)cc3)nc2N)c2ccccc2n1 (racemic) |
| 196 | Nc1nc(Nc2ccc(N3CCN(C4CC5CCC4C5)CC3)cc2)nn1-c1ncnc2ccc(Cl)cc12 (racemic) |
| 146 | Nc1nc(Nc2ccc(N3CCN(C4CC5CCC4C5)CC3)cc2)nn1-c1ncnc2ccc(F)cc12 (racemic) |
| 24 | Nc1nc(Nc2ccc(N3CCN(C4CC5CCC4C5)CC3)cc2)nn1-c1ncnc2ccsc12 (racemic) |

System: not listed separately
Assay: Half life in iv dosed Sprague-Dawley rat
Format: ADME, organism-based
Conditions: in vivo

| Compound | half-life [h] |
| --- | --- |
| COc1cc2ncnc(-n3nc(Nc4ccc(N5CCN(C6CC7CCC6C7)CC5)c(Cl)c4)nc3N)c2cc1OC (stereo not given) | 2.7 |
| Nc1nc(Nc2ccc(N3CCN(C4CC5CCC4C5)CC3)cc2)nn1-c1nccc2ccccc12 (racemic) | 2.3 |

Next, values leading:

| half-life [h] | Compound |
| --- | --- |
| 4.9 | Cc1csc2c(-n3nc(Nc4ccc(N5CCN(C6CC7CCC6C7)CC5)cc4)nc3N)nc(Cl)nc12 (racemic) |
| 2.3 | Nc1nc(Nc2ccc(N3CCN(C4CC5CCC4C5)CC3)cc2)nn1-c1ncnc2ccc(F)cc12 (racemic) |
